From patent US20230210896A9, “METHOD FOR T CELL ACTIVATION FOR CANCER TREATMENT” (GOOD T CELLS, INC., priority 2019, published 2023)

Test system: CD8-expressing T cells
Assay: ELISPOT of IFN-γ secretion in T cells activated by dendritic cells loaded with LMP2a epitope groups
Assay type: cell-based, human
Details: DC:CD8 T cells 1:10, 18 hours
[1] = healthy human donor N5 (N5-1 and N5-2, repeated twice), FIGS. 1 and 2
[2] = healthy human donor N15, FIG. 4

Substance	expression of IFN-γ in T cells (ELISPOT) [1]	expression of IFN-γ in T cells (ELISPOT) (healthy human donor N9, FIG. 3)	expression of IFN-γ in T cells (ELISPOT) [2]
3 (MGAGPPSPGGDPDGD; LMP2a epitope) [compound 3]	increased expression of IFN-γ	increased expression of IFN-γ	increased expression of IFN-γ
5 (GGDPDGDDGGNNSQY; LMP2a epitope) [compound 5]	–	–	increased expression of IFN-γ
8 (SQYPSASGSYGNTPT; LMP2a epitope) [compound 8]	–	increased expression of IFN-γ	increased expression of IFN-γ
9 (SASGSYGNTPTPPND; LMP2a epitope) [compound 9]	increased expression of IFN-γ	–	increased expression of IFN-γ
12 (PNDEERESNEEPPPP; LMP2a epitope) [compound 12]	increased expression of IFN-γ	–	–
15 (PPPYEDLDWGNGDRH; LMP2a epitope) [compound 15]	increased expression of IFN-γ	increased expression of IFN-γ	increased expression of IFN-γ
16 (EDLDWGNGDRHSDYQ; LMP2a epitope) [compound 16]	–	increased expression of IFN-γ	–
18 (DRHSDYQPLGNQDPS; LMP2a epitope) [compound 18]	increased expression of IFN-γ	–	–
19 (DYQPLGNQDPSLYLG; LMP2a epitope) [compound 19]	–	increased expression of IFN-γ	–
20 (LGNQDPSLYLGLQHD; LMP2a epitope) [compound 20]	–	increased expression of IFN-γ	–
